Here are results for 14 substances from US20110039763A1, “TARGETED ANTIMICROBIAL MOIETIES” (C3 JIAN, INC., priority 2009, published 2011).

For assay [1], the system named is microorganisms. The experiment in a line: Morphology, biofilm and growth disrupting peptides (Table 5). Also on record: key: A: Peptide aggregates; B: Less hyphal formation; Clumps; Diffuse clumps and small polyps; F: Diffuse growth; H: Thin; I: Growth inhibition; Microcolony formation; Rippled; Small polyps; Thick; W: Halo formation on top, microlonies on bottom. In kind it is cell-based. The source says: In certain embodiments peptides that induce alterations in phenotype or other biological activities can also be used as antimicrobial effector moieties.

The test system of assay [2] is microorganisms. The experiment in a line: Peptide activities: targeting/binding, antimicrobial, growth or phenotype altering (Tables 7, 8). In kind it is cell-based. Particulars: peptides having multiple activities. The source says: In certain embodiments, peptides described herein can have multiple activities. Thus for example, a peptide can have both binding/targeting activity and antimicrobial activity. Such peptides can be used, e.g., in a chimeric construct, for any or all of these properties. Thus, for example, a peptide designated “B” in Table 8 can be used as a targeting peptide. If it is also designated G or M it can also be used for antimicrobial activity.
Table 8. Peptides Having Multiple Activities. B: Targeting/Binding Activity; M: Antimicrobial Activity; G: GROWTH or Phenotype Altering.

In the case of “PF-063: peptide having multiple activities (IAAIIVLVLFQKGLLQIFNWILIQLQ; Peptide with targeting and/or antimicrobial activity)”, in the assay with microorganisms [1], the “Organism, effect: B. subtilis” value is given as “B. subtilis (C)”; the “Organism, effect: C. jeikeium” value was “C. jeikeium (D)”; the “Organism, effect: C. jejuni” value was “C. jejuni (D)”; the “Organism, effect: M. luteus” value is reported as “M. luteus (R)”. In the assay on microorganisms [1], the “Organism, effect: MRSA” value is “MRSA (M)”; the “Organism, effect: P. aeruginosa” value is “P. aeruginosa (A)”; the “Organism, effect: S. epidermidis” value was “S. epidermidis (R)”; the “Organism, effect: S. pneumoniae” value is “S. pneumoniae (D)”. For the same substance, the Activities entry in the assay on microorganisms [2] is reported as “G B”.

As to “PF-067: peptide having multiple activities (DLIVKVHICFVVKTASGYCYLNKREAQAAI; Peptide with targeting and/or antimicrobial activity)”, in the assay with microorganisms [1], the “Organism, effect: B. subtilis” value is reported as “B. subtilis (C)”; the “Organism, effect: C. jeikeium” value is listed as “C. jeikeium (D)”; the “Organism, effect: C. jejuni” value was “C. jejuni (D)”; the “Organism, effect: M. luteus” value is listed as “M. luteus (R)”. In the assay on microorganisms [1], the “Organism, effect: MRSA” value was “MRSA (M)”; the “Organism, effect: P. aeruginosa” value is “P. aeruginosa (A)”; the “Organism, effect: S. epidermidis” value is listed as “S. epidermidis (D)”; the “Organism, effect: S. pneumoniae” value is “S. pneumoniae (D)”. The Activities result in the assay on microorganisms [2] is on record as “G B”.

Turning to “PF-076: peptide having multiple activities (chain 1 LYQYELLSKEEYLKCTLIINQRRNEQK; chain 2 LYQYELLSKEEYLKCTLIINQRRNEQK; Peptide with targeting and/or antimicrobial activity)”, in the assay with microorganisms [1], the “Organism, effect: C. jeikeium” value is given as “C. jeikeium (A)”; the “Organism, effect: M. luteus” value is “M. luteus (A)”; the “Organism, effect: MRSA” value is recorded as “MRSA (R)”; the “Organism, effect: S. epidermidis” value is given as “S. epidermidis (S)”. Besides, the Activities result with microorganisms [2] is reported as “G B”.

Consider “PF-125: peptide having multiple activities (chain 1 YVVGALVILAVAGLIYSMLRKA; chain 2 YVVGALVILAVAGLIYSMLRKA; Peptide with targeting and/or antimicrobial activity)”, for which, in the assay on microorganisms [1], the “Organism, effect: M. luteus” value was “M. luteus (C)” and the “Organism, effect: S. epidermidis” value was “S. epidermidis (D)”. Further, the Activities result with microorganisms [2] is “G B”.

For the substance “PF-139: peptide having multiple activities (chain 1 ALSKPAIQARTLCRRQDPP; chain 2 ALSKPAIQARTLCRRQDPP; Peptide with targeting and/or antimicrobial activity)”, in the assay with microorganisms [1], the “Organism, effect: C. jeikeium” value is reported as “C. jeikeium (R)”; the “Organism, effect: M. luteus” value is reported as “M. luteus (C)”; the “Organism, effect: S. epidermidis” value is listed as “S. epidermidis (M)”. Moreover, the Activities result with microorganisms [2] was “G B”.

With “PF-140: peptide having multiple activities (chain 1 FHRRVIRASEWALTTRSFSTPLRSAAR; chain 2 FHRRVIRASEWALTTRSFSTPLRSAAR; Peptide with targeting and/or antimicrobial activity)”, the “Organism, effect: C. albicans” value in the assay on microorganisms [1] (C. albicans) was “C. albicans (B)”. In the assay with microorganisms [1], the “Organism, effect: C. jeikeium” value is given as “C. jeikeium (D)”; the “Organism, effect: C. jejuni” value was “C. jejuni (D)”; the “Organism, effect: M. luteus” value is on record as “M. luteus (R)”; the “Organism, effect: MRSA” value is “MRSA (M)”. In the assay on microorganisms [1], the “Organism, effect: P. aeruginosa” value was “P. aeruginosa (A)”; the “Organism, effect: S. epidermidis” value is on record as “S. epidermidis (D)”; the “Organism, effect: S. pneumoniae” value is listed as “S. pneumoniae (D)”. Moreover, the Activities entry with microorganisms [2] is “G B”.

Consider “PF-145: peptide having multiple activities (chain 1 GIVLTGRAGLVSGACSMALGVGLG; chain 2 GIVLTGRAGLVSGACSMALGVGLG; Peptide with targeting and/or antimicrobial activity)”, for which, in the assay with microorganisms [1], the “Organism, effect: B. subtilis” value is “B. subtilis (C)”; the “Organism, effect: C. jeikeium” value is given as “C. jeikeium (R)”; the “Organism, effect: C. jejuni” value was “C. jejuni (R)”; the “Organism, effect: M. luteus” value is reported as “M. luteus (A)”. Further, in the assay with microorganisms [1], the “Organism, effect: MRSA” value is reported as “MRSA (M)”; the “Organism, effect: S. epidermidis” value is recorded as “S. epidermidis (D)”; the “Organism, effect: S. pneumoniae” value is recorded as “S. pneumoniae (R)”. The Activities result in the assay with microorganisms [2] is recorded as “G B”.

For the substance “PF-157: peptide having multiple activities (HTAVVWLAGVSGCVALSHCEPA; Peptide with targeting and/or antimicrobial activity)”, the “Organism, effect: S. epidermidis” value with microorganisms [1] was “S. epidermidis (M)”. Also, the Activities entry in the assay with microorganisms [2] was “G B”.

Take “PF-178: peptide having multiple activities (EVYSSPTNNVAITVQNN; Peptide with targeting and/or antimicrobial activity)”: in the assay on microorganisms [1], the “Organism, effect: E. coli” value was “E. coli (C)”; the “Organism, effect: MRSA” value is recorded as “MRSA (M)”; the “Organism, effect: S. epidermidis” value was “S. epidermidis (D)”; the “Organism, effect: S. pneumoniae” value is recorded as “S. pneumoniae (D)”. Moreover, in the assay on microorganisms [2], the Activities entry was “G B”.

With “PF-190: peptide having multiple activities (HFILRKPLLFMIHSLKTGPLDRF; Peptide with targeting and/or antimicrobial activity)”, in the assay with microorganisms [1], the “Organism, effect: C. jeikeium” value was “C. jeikeium (R)” and the “Organism, effect: S. epidermidis” value was “S. epidermidis (C)”. In addition, the Activities result in the assay with microorganisms [2] is on record as “G B”.

For the substance “PF-196: peptide having multiple activities (TTARYIRRQCHTSITPLSQG; Peptide with targeting and/or antimicrobial activity)”, in the assay on microorganisms [1], the “Organism, effect: C. jeikeium” value is on record as “C. jeikeium (R)” and the “Organism, effect: S. epidermidis” value is reported as “S. epidermidis (C)”. Besides, the Activities result in the assay with microorganisms [2] was “G B”.

Take “PF-203: peptide having multiple activities (SWKCHHLAI; Peptide with targeting and/or antimicrobial activity)”: in the assay on microorganisms [1], the “Organism, effect: C. jeikeium” value is recorded as “C. jeikeium (R)” and the “Organism, effect: S. epidermidis” value is “S. epidermidis (A)”. Moreover, the Activities entry in the assay with microorganisms [2] was “G B”.

As to “PF-347: peptide having multiple activities (GIFTGVTVVVSLKHC; Peptide with targeting and/or antimicrobial activity)”, in the assay on microorganisms [1], the “Organism, effect: E. coli” value is given as “E. coli (C)”; the “Organism, effect: MRSA” value is reported as “MRSA (C)”; the “Organism, effect: S. epidermidis” value is listed as “S. epidermidis (C)”. For the same substance, the “Organism, effect: E. faecalis” value with microorganisms [1] (E. faecalis) was “E. faecalis (C)”. Also, in the assay with microorganisms [2], the Activities entry is listed as “G B”.

With “PF-354: peptide having multiple activities (FTFSKCRASNGRGFGTLWL; Peptide with targeting and/or antimicrobial activity)”, the “Organism, effect: MRSA” value in the assay with microorganisms [1] is reported as “MRSA (H)”. For the same substance, in the assay on microorganisms [2], the Activities entry is “G B”.
